Experimental findings from paper PMC9653804, “Multifunctional Derivatives of Spiropyrrolidine Tethered Indeno-Quinoxaline Heterocyclic Hybrids as Potent Antimicrobial, Antioxidant and Antidiabetic Agents: Design, Synthesis, In Vitro and In Silico Approaches” (Molecules, 2022) are described below.

Values after ≈ are worked out from the molar mass of the structure shown.

Data set [1] has as its system Staphylococcus aureus ATCC 25923. Description: Antimicrobial activity (MIC, MBC) against S. aureus. The class given is cell-based. The following applies: S. aureus ATCC 25923; for MBC/MIC: bactericidal ≤ 4, bacteriostatic > 4; for MIC: Staphylococcus aureus, ATCC25923, '-' = No activity.
Data set [2] concerns Escherichia coli ATCC 25922. Description: Antimicrobial activity (MIC, MBC) against E. coli. The class given is cell-based. The following applies: E. coli ATCC 25922; '-' = No activity.
For data set [3], the system named is Pseudomonas aeruginosa ATCC 27853. Kind of data set: Antimicrobial activity (MIC, MBC) against P. aeruginosa. The class given is cell-based. To be noted: P. aeruginosa ATCC 27853; '-' = No activity.
The subject of data set [4] is Candida albicans ATCC 90028. Description: Antifungal activity (MIC, MFC) against C. albicans. The class given is cell-based. To be noted: C. albicans ATCC 90028, '-' = No activity; for MFC/MIC: fungicidal ≤ 4, fungistatic > 4; for MFC / MIC: Candida albicans, ATCC90028.
Data set [5] relates to Candida krusei ATCC 6258. Description: Antifungal activity (MIC, MFC) against C. krusei. The class given is cell-based. The following applies: C. krusei ATCC 6258, '-' = No activity; for MFC / MIC: Pichia kudriavzevii, ATCC6258.
The nature of data set [6]: DPPH free radical scavenging activity. To be noted: DPPH radical scavenging. How it is done:
DPPH, the stable artificial free radicals, has been widely used for the measurement of free radical scavenging capacity of the compounds in ethanol and aqueous systems. Briefly, 2 mL DPPH solution (0.2 mM, in 95% ethanol) was incubated with 2 mL different concentrations of compounds solution. Then, the reaction mixture was shaken and incubated in the dark for 40 min at room temperature. The absorbance was immediately recorded at 517 nm against ethanol with a spectrophotometer (Metash, model UV-5200, Shanghai Xiwen Biotech. Co., Ltd, Shanghai, China). The DPPH free radical scavenging rate was calculated using the equation:DPPH scavenging activity (%) = A0 − A1/A0 × 100 where A0 was the absorbance of the control reaction (containing all reagents except the tested compound), and A1 was the absorbance of the test reaction (containing all reagents with the tested compound). The percentage of DPPH radical scavenging activity was plotted against the sample concentration to acquire the IC50 value, defined as the concentration of sample necessary to cause 50% inhibition. Radical scavenging activity (RSA) was calculated from the IC50 value as the equation: RSA = pIC50 = −lg[IC50]. The smaller the IC50 value, the larger is the RSA value and the higher is the antioxidant activity.
On the technique in general: The DPPH test is a chemical assay of radical scavenging.

Data set [7] in a line: Radical scavenging activity ABTS. To be noted: for IC50: ABTS radical scavenging; for ABTS scavenging activity, fold higher than Trolox: relative to standard Trolox. How it is done:
The ABTS assay was performed as previously described by Tuberoso et al.. ABTS^+ radical was generated by oxidation of ABTS with potassium persulfate. The blue–green ABTS was produced through the reaction between 2 mM ABTS and […] potassium persulfate in water. The mixture was left to stand in the dark for 12 to 16 h before use. The ABTS solution was diluted with methanol to an absorbance of 0.700 ± 0.005 at 734 nm. Then 2 mL of diluted ABTS solution was mixed with 100 μL of samples and absorbance was measured after 1 min incubation at room temperature. A standard curve was obtained by using Trolox as standard solution. The results were expressed as μM Trolox equivalent.
The mixture of 7 mmol/L aqueous ABTS solution with 2.45 mmol/L potassium persulfate solution constitutes a stable ABTS^+ stock solution that was allowed to stand in the dark and at room temperature for 12 to 16 h before use. A 1 mL sample of the diluted ABTS solution (adjusted to 0.7 ± 0.02 at […]) was added to 10 μL of each product. The absorbance was determined after 6 min. The percentage inhibition of the ABTS˙ radical was calculated from the following equation:% inhibition = (Abscontrol − Abstest)/Abscontrol × 100
Abs control: the control absorbance.
Abs test: the absorbance of the test sample after 6 min.

The nature of data set [8]: Ferric reducing power assay (FRAP).
Data set [9] deals with Micrococccus luteus NCIMB 8166. Description: Antimicrobial activity (MIC, MBC) against M. luteus. In kind it is cell-based. The following applies: M. luteus NCIMB 8166, '-' = No activity.

What is called MFC is the smallest concentration meeting the test's criterion for killing the fungus. One may read the MIC as the lowest concentration that inhibits growth of the organism. Low readings indicate inhibition by little substance, high ones a need for much substance. As a reminder, the IC50 is the concentration that gives 50% inhibition. Higher therefore signals lower potency. For orientation: melting point means the temperature, or range, at which the solid turns liquid. Take `CN1C(=O)CC2(C1=O)C(c1ccccc1)CN(C)C21c2ccccc2-c2nc3ccccc3nc21` (stereo not drawn) [5a, Spiro [2,11″]indeno-[1,2b]-quinoxaline-spiro-[3,3′]-N-methylsuccinimide-4-(phenyl)hexahydro-1H-pyrrolidines]: the melting point is 173 to 175 °C. The MBC/MIC in [1] stood at 2. Besides, in [2], the MBC/MIC amounted to 2. The MBC/MIC in data set [3] came out at 4. This compound had an MFC/MIC in data set [4] of 1. In [5], this compound displayed an MFC/MIC of 1, an MFC of 67.6 mM (≈ 31.1 mg/mL) and an MIC of 67.6 mM (≈ 31.1 mg/mL). The compound further came in with an IC50 in data set [6] of 15.4 ± 0.65 µM. Moreover, the IC50 in [7] is 49.19 ± 0.46 µM. The same compound displayed a half-inhibitory concentration (IC50) in data set [8] of 17 ± 0.52 µM.

The compound `Cc1ccc(C2CN(C)C3(c4ccccc4-c4nc5ccccc5nc43)C23CC(=O)N(C)C3=O)cc1` (stereo not drawn) [5b, Spiro [2,11″]indeno-[1,2b]-quinoxaline-spiro-[3,3′]-N-methylsuccinimide-4-(4-methylphenyl)hexahydro-1H-pyrrolidines] showed a melting point of 183 to 185 °C. In addition, in data set [1], the MBC/MIC is listed as 8 and the MIC came to 65.6 mM (≈ 31.1 mg/mL). This compound also showed an MBC/MIC in data set [2] of 2. In [3], this compound yielded an MBC/MIC of 4. In [4], this compound came in with an MFC/MIC of 2. Further, in data set [5], the MFC/MIC amounted to 1, the MFC is 65.6 mM (≈ 31.1 mg/mL) and the MIC came to 65.6 mM (≈ 31.1 mg/mL). Besides, the IC50 in [6] amounted to 33.74 ± 0.004 µM. In data set [7], this compound displayed an IC50 of 57.51 ± 0.55 µM. This compound returned an IC50 in data set [8] of 63.26 ± 0.21 µM.

The compound `COc1ccccc1C1CN(C)C2(c3ccccc3-c3nc4ccccc4nc32)C12CC(=O)N(C)C2=O` (stereo not drawn) [5c, Spiro [2,11″]indeno-[1,2b]-quinoxaline-spiro-[3,3′]-N-methylsuccinimide-4-(2 methoxyphenyl)hexahydro-1H-pyrrolidines] registered a melting point of 196 to 198 °C. In data set [1], this compound gave an MBC/MIC of 16 and an MIC of 31.7 mM (≈ 15.6 mg/mL). The compound also displayed an MBC/MIC in data set [3] of 2. In [4], the MFC/MIC is recorded as 1, the MFC stood at 63.4 mM (≈ 31.1 mg/mL) and it took 63.4 mM (≈ 31.1 mg/mL) to inhibit growth (MIC). In data set [5], this compound displayed an MFC/MIC of 1, an MFC of 63.4 mM (≈ 31.1 mg/mL) and an MIC of 63.4 mM (≈ 31.1 mg/mL). 3.26 ± 0.32 µM corresponded to half-maximal inhibition in data set [6] (IC50). This compound registered an IC50 in data set [7] of 7.03 ± 0.07 µM. In data set [8], inhibition was half-maximal at 3.69 ± 0.72 µM (IC50).

Take `COc1ccc(C2CN(C)C3(c4ccccc4-c4nc5ccccc5nc43)C23CC(=O)N(C)C3=O)cc1` (stereo not drawn) [5d, Spiro [2,11″]indeno-[1,2b]-quinoxaline-spiro-[3,3′]-N-methylsuccinimide-4-(4-methoxyphenyl)hexahydro-1H-pyrrolidines]: the melting point is 179 to 181 °C. For the same compound, in data set [1], the MBC/MIC turned out to be 32 and the MIC was determined as 3.95 mM (≈ 1.94 mg/mL). In data set [9], this compound returned an MBC/MIC of 4. In [9] (Micrococcus luteus, NCIMB8166), the MIC is 63.4 mM (≈ 31.1 mg/mL). In addition, in data set [2], the MBC/MIC stood at 4. In data set [3], this compound registered an MBC/MIC of 4. Also, in data set [4], the MFC/MIC was 4 and the MIC amounted to 31.7 mM (≈ 15.6 mg/mL). Also, in [5], the MFC/MIC was 1, the MFC is 15.8 mM (≈ 7.78 mg/mL) and the MIC is 15.8 mM (≈ 7.78 mg/mL). For the same compound, the IC50 in data set [6] came out at 7.44 ± 0.15 µM. 9.78 ± 0.3 µM corresponded to half-maximal inhibition in data set [7] (IC50). Besides, 8.09 ± 0.82 µM corresponded to half-maximal inhibition in [8] (IC50).

Consider `CN1C(=O)CC2(C1=O)C(c1ccc(Br)cc1)CN(C)C21c2ccccc2-c2nc3ccccc3nc21` (stereo not drawn) [5f, Spiro [2,11″]indeno-[1,2b]-quinoxaline-spiro-[3,3′]-N-methylsuccinimide-4-(4-bromophenyl)hexahydro-1H-pyrrolidines], for which the melting point lay in the range of 200 to 202 °C. Further, the MBC/MIC in [1] was 2. The same compound yielded an MBC/MIC in [2] of 2. Besides, in data set [3], the MBC/MIC is 2. In [4], this compound yielded an MFC/MIC of 1, an MFC of 57.7 mM (≈ 31.1 mg/mL) and an MIC of 57.7 mM (≈ 31.1 mg/mL). In data set [5], this compound had an MFC/MIC of 1, an MFC of 57.7 mM (≈ 31.1 mg/mL) and an MIC of 57.7 mM (≈ 31.1 mg/mL). In data set [6], this compound gave an IC50 of 16.1 ± 0.39 µM. Also, in data set [7], inhibition was half-maximal at 18.1 ± 0.53 µM (IC50) and the “ABTS scavenging activity, fold higher than Trolox” value was roughly 6 fold. The same compound showed an IC50 in data set [8] of 7.93 ± 0.44 µM.

On to `CN1C(=O)CC2(C1=O)C(c1ccc(F)cc1)CN(C)C21c2ccccc2-c2nc3ccccc3nc21` (stereo not drawn) [5g, Spiro [2,11″]indeno-[1,2b]-quinoxaline-spiro-[3,3′]-N-methylsuccinimide-4-(4-fluorophenyl)hexahydro-1H-pyrrolidines], for which the melting point lay in the range of 205 to 207 °C. In [1], this compound displayed an MBC/MIC of 16 and an MIC of 16.2 mM (≈ 7.78 mg/mL). Moreover, in [2], the MBC/MIC amounted to 2. This compound also returned an MBC/MIC in [3] of 2. In data set [4], this compound returned an MFC/MIC of 1, an MFC of 65 mM (≈ 31.1 mg/mL) and an MIC of 65 mM (≈ 31.1 mg/mL). Further, in [5], the MFC/MIC was 1, the MFC was 32.5 mM (≈ 15.6 mg/mL) and inhibition of growth (MIC) required 32.5 mM (≈ 15.6 mg/mL). In [6], this compound came in with an IC50 of 26 ± 0.5 µM. Besides, in data set [7], it took 7.19 ± 0.11 µM to reach half-maximal inhibition (IC50) and the “ABTS scavenging activity, fold higher than Trolox” value is given as “about 14 fold”. In data set [8], it took 20.5 ± 0.6 µM to reach half-maximal inhibition (IC50).

On to `COc1ccc(C2CN(C)C3(c4ccccc4-c4nc5ccccc5nc43)C23CC(=O)N(C)C3=O)cc1Br` (stereo not drawn) [5k, Spiro [2,11″]indeno-[1,2b]-quinoxaline-spiro-[3,3′]-N-methylsuccinimide-4-(3-bromo-4-methoxyphenyl)hexahydro-1H-pyrrolidines], for which the melting point fell in the range of 209 to 211 °C. In data set [1], this compound displayed an MBC/MIC of 8 and an MIC of 54.7 mM (≈ 31.1 mg/mL). In data set [2], this compound gave an MBC/MIC of 2. Also, in [3], the MBC/MIC came to 2. In addition, the MFC/MIC in [4] stood at 1. For the same compound, in data set [5], the MFC/MIC turned out to be 1, the MFC worked out at 54.7 mM (≈ 31.1 mg/mL) and the MIC turned out to be 54.7 mM (≈ 31.1 mg/mL). This compound displayed an IC50 in data set [6] of 123.4 ± 0.45 µM. In [7], this compound showed a half-inhibitory concentration (IC50) of 7.69 ± 0.36 µM. Moreover, in data set [8], 6.03 ± 0.12 µM corresponded to half-maximal inhibition (IC50).

In the case of `C[C@@H]1[C@H](O)[C@@H](C)/C=C/C=C/C=C/C=C/C=C/C=C/C=C/[C@H](O[C@@H]2O[C@H](C)[C@@H](O)[C@H](N)[C@@H]2O)C[C@@H]2O[C@](O)(C[C@@H](O)C[C@@H](O)[C@H](O)CC[C@@H](O)C[C@@H](O)CC(=O)O[C@H]1C)C[C@H](O)[C@H]2C(=O)O` [Amphotericin B, reference compound], in data set [4], the MFC/MIC amounted to 1, the MFC amounted to 5.41 mM (≈ 5 mg/mL) and inhibition of growth (MIC) required 5.41 mM (≈ 5 mg/mL). In data set [5], this compound had an MFC/MIC of 1, an MFC of 5.41 mM (≈ 5 mg/mL) and an MIC of 5.41 mM (≈ 5 mg/mL).

Regarding `CN(C)[C@@H]1C(O)=C(C(N)=O)C(=O)[C@@]2(O)C(O)=C3C(=O)c4c(O)cccc4[C@@](C)(O)[C@H]3C[C@@H]12` [Tetracycline, reference compound], the MBC/MIC in [1] is given as 2; in data set [9], 2; in [2] it was 1; in [3], 2.

Take `Cc1c(C)c2c(c(C)c1O)CCC(C)(C(=O)O)O2` (stereo not drawn) [Trolox, reference compound]: the results for the IC50 in data set [6], in [7] and in data set [8] were 31.2 ± 3.67 µM, 99.88 ± 0.31 µM and 41.9 ± 2.07 µM, respectively.
